Active and inactive are the calls of the source. Rule as the data show it: actives have a measured IC50 and inactives only a lower limit.

For the assay, the target named is Envelope glycoprotein gp160 (Human immunodeficiency virus 1, UniProt Q6QLK5). The experiment in a line: inhibitors of HIV fusion peptide binding, primary screen, biochemical, uHTS, fluorescence dequenching (AID 1986).
Envelope glycoprotein gp160, sequence (Q6QLK5 whole entry, the tested form may be a part): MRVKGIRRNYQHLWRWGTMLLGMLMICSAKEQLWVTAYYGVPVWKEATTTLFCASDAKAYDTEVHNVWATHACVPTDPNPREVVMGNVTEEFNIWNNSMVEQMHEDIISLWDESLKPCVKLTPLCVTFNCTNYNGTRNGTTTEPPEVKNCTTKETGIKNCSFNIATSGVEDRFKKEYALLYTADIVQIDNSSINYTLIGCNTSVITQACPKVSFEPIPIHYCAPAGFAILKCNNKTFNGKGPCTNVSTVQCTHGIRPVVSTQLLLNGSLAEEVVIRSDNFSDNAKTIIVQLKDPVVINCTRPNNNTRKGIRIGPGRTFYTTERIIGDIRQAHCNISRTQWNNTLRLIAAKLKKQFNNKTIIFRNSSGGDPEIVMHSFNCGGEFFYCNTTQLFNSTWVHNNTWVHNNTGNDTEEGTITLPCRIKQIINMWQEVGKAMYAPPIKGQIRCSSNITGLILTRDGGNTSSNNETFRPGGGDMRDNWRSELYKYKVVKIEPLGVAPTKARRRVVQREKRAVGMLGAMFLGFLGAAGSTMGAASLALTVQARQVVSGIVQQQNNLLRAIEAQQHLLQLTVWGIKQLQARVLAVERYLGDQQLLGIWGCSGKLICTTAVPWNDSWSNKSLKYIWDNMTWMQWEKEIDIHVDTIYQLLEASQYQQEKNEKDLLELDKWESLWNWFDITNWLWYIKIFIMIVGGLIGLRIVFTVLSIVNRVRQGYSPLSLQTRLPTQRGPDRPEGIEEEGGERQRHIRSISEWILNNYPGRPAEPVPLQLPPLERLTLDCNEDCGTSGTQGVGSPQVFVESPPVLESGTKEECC
Regarding `COc1ccc(C(=O)Oc2ccc(/C=N/Nc3ccc(Cl)c(C(=O)O)c3)cc2OC)cc1`, the 50% inhibitory concentration (IC50) (in general, the point on the concentration scale where inhibition reaches its midpoint) is 19.3 µM (active). The result for `O=C(N/N=C/c1cc(Br)c(O)c(Br)c1)c1cc2c(ccc3ccccc32)o1` reads 15 µM (active). The result for `COc1cc(C(=O)Nc2scc(-c3ccc(Br)cc3)c2C(=O)O)cc(OC)c1OC` reads 33.2 µM (active); that for `CC(/C=C1\SC(=S)N(C(C(=O)O)c2ccccc2)C1=O)=C\c1ccccc1` (centres undefined), 46 µM (active).

Source of the values: ChEMBL document CHEMBL1201862, “PubChem BioAssay data set” (2004).
